Results reported in patent publication US7235379B2, “Method and medium for the detection/identification of microorgranisms with esterase activity” (Bio Merieux, priority 2000, dated 2007).
Where “and” joins values, the source holds several entries; their conditions need not be identical. Equal entries are not always repeated. Where two headings read alike, the source gives them in different places.

Assays:
Format in all cases: cell-based
Salmonella spp. 017 = experiment: Ex.4 colony coloration, 5-bromo-3-indolyl nonanoate, DMSO/Tween 20, MacConkey; set-up: key to color: —: absence of colour or intensity
[1] = system: Salmonella enteritidis 006; experiment: as above
Salmonella typhi 118 = system: Salmonella typhi 118; as to intensity of coloration: key: 0: no activity; 0.1: trace of coloration; 0.5: very pale coloration; 1: distinct coloration of low intensity; 2: clear coloration of medium intensity; 3: intense coloration; 4: very intense coloration
Salmonella arizonae 018 = experiment: Ex.4 colony coloration, 5-bromo-3-indolyl nonanoate, DMSO/Tween 20, MacConkey; as to intensity of coloration: key: 0: no activity; 0.1: trace of coloration; 0.5: very pale coloration; 1: distinct coloration of low intensity; 2: clear coloration of medium intensity; 3: intense coloration; 4: very intense coloration
Escherichia coli 002 = experiment: as above; set-up: key: —: absence of colour or intensity
Hafnia alvei 025 = experiment: as above; set-up: key: —: absence of colour or intensity
[2] = system: bacterial species exhibiting esterase activity; experiment: Ex.4 overall conclusion, colony coloration; settings: experimental conditions of Example 4
From the text: This medium is then separated into eight portions.

CCCCC(CC)COS(=O)(=O)[O-].[Na+] (centres unmarked) [Tergitol 8]
color (Salmonella spp. 017; 2 ml/l Tergitol 8, 24 h): gray
intensity of coloration (Salmonella spp. 017; 2 ml/l Tergitol 8, 24 h): 0.5
color (Salmonella spp. 017; 2 ml/l Tergitol 8, 48 h): gray
intensity of coloration (Salmonella spp. 017; 2 ml/l Tergitol 8, 48 h): 1.5
color (Salmonella spp. 017; 4 ml/l Tergitol 8, 24 h): gray
intensity of coloration (Salmonella spp. 017; 4 ml/l Tergitol 8, 24 h): 0.3
color (Salmonella spp. 017; 4 ml/l Tergitol 8, 48 h): gray
intensity of coloration (Salmonella spp. 017; 4 ml/l Tergitol 8, 48 h): 1
color (Salmonella spp. 017; 8 ml/l Tergitol 8, 24 h): —
color (Salmonella spp. 017; 8 ml/l Tergitol 8, 48 h): gray
intensity of coloration (Salmonella spp. 017; 8 ml/l Tergitol 8, 48 h): 0.5
color ([1]; 2 ml/l Tergitol 8, 24 h): gray
intensity of coloration ([1]; 2 ml/l Tergitol 8, 24 h): 3
color ([1]; 2 ml/l Tergitol 8, 48 h): gray
intensity of coloration ([1]; 2 ml/l Tergitol 8, 48 h): 4
color ([1]; 4 ml/l Tergitol 8, 24 h): gray
intensity of coloration ([1]; 4 ml/l Tergitol 8, 24 h): 2.5
color ([1]; 4 ml/l Tergitol 8, 48 h): gray
intensity of coloration ([1]; 4 ml/l Tergitol 8, 48 h): 3
color ([1]; 8 ml/l Tergitol 8, 24 h): gray
intensity of coloration ([1]; 8 ml/l Tergitol 8, 24 h): 3
color ([1]; 8 ml/l Tergitol 8, 48 h): gray
intensity of coloration ([1]; 8 ml/l Tergitol 8, 48 h): 3.5
color (Salmonella typhi 118): gray
intensity of coloration (Salmonella typhi 118): 1 and 1.5 and 2
color (Salmonella arizonae 018; 2 ml/l Tergitol 8, 24 h): gray
intensity of coloration (Salmonella arizonae 018; 2 ml/l Tergitol 8, 24 h): 2
color (Salmonella arizonae 018; 2 ml/l Tergitol 8, 48 h): gray
intensity of coloration (Salmonella arizonae 018; 2 ml/l Tergitol 8, 48 h): 4
color (Salmonella arizonae 018; 4 ml/l Tergitol 8, 24 h): gray
intensity of coloration (Salmonella arizonae 018; 4 ml/l Tergitol 8, 24 h): 2
color (Salmonella arizonae 018; 4 ml/l Tergitol 8, 48 h): gray
intensity of coloration (Salmonella arizonae 018; 4 ml/l Tergitol 8, 48 h): 2.5
color (Salmonella arizonae 018; 8 ml/l Tergitol 8, 24 h): gray
intensity of coloration (Salmonella arizonae 018; 8 ml/l Tergitol 8, 24 h): 2
color (Salmonella arizonae 018; 8 ml/l Tergitol 8, 48 h): gray
intensity of coloration (Salmonella arizonae 018; 8 ml/l Tergitol 8, 48 h): 2.5
color (Escherichia coli 002; 2 ml/l Tergitol 8, 24 h): —
color (Escherichia coli 002; 2 ml/l Tergitol 8, 48 h): —
color (Escherichia coli 002; 4 ml/l Tergitol 8, 24 h): —
color (Escherichia coli 002; 4 ml/l Tergitol 8, 48 h): —
color (Escherichia coli 002; 8 ml/l Tergitol 8, 24 h): —
color (Escherichia coli 002; 8 ml/l Tergitol 8, 48 h): —
color (Hafnia alvei 025; 2 ml/l Tergitol 8, 24 h): —
color (Hafnia alvei 025; 2 ml/l Tergitol 8, 48 h): —
color (Hafnia alvei 025; 4 ml/l Tergitol 8, 24 h): —
color (Hafnia alvei 025; 4 ml/l Tergitol 8, 48 h): —
color (Hafnia alvei 025; 8 ml/l Tergitol 8, 24 h): —
color (Hafnia alvei 025; 8 ml/l Tergitol 8, 48 h): —
effect on the esterase activity compared with Tergitol 4 [2]: not as pronounced as that observed with Tergitol 4

polyethylene glycol mono-p-isooctylphenyl ether [Triton X100]
color (Salmonella spp. 017; 8 ml/l Triton X100, 24 h): gray
intensity of coloration (Salmonella spp. 017; 8 ml/l Triton X100, 24 h): 1
color (Salmonella spp. 017; 8 ml/l Triton X100, 48 h): gray
intensity of coloration (Salmonella spp. 017; 8 ml/l Triton X100, 48 h): 3
color (Salmonella spp. 017; 16 ml/l Triton X100, 24 h): gray
intensity of coloration (Salmonella spp. 017; 16 ml/l Triton X100, 24 h): 0.5
color (Salmonella spp. 017; 16 ml/l Triton X100, 48 h): gray
intensity of coloration (Salmonella spp. 017; 16 ml/l Triton X100, 48 h): 2
color (Salmonella spp. 017; 32 ml/l Triton X100, 24 h): —
color (Salmonella spp. 017; 32 ml/l Triton X100, 48 h): gray
intensity of coloration (Salmonella spp. 017; 32 ml/l Triton X100, 48 h): 0.5
color ([1]; 8 ml/l Triton X100, 24 h): gray
intensity of coloration ([1]; 8 ml/l Triton X100, 24 h): 2
color ([1]; 8 ml/l Triton X100, 48 h): gray
intensity of coloration ([1]; 8 ml/l Triton X100, 48 h): 2.5
color ([1]; 16 ml/l Triton X100, 24 h): gray
intensity of coloration ([1]; 16 ml/l Triton X100, 24 h): 2
color ([1]; 16 ml/l Triton X100, 48 h): gray
intensity of coloration ([1]; 16 ml/l Triton X100, 48 h): 2.5
color ([1]; 32 ml/l Triton X100, 24 h): gray
intensity of coloration ([1]; 32 ml/l Triton X100, 24 h): 1
color ([1]; 32 ml/l Triton X100, 48 h): gray
intensity of coloration ([1]; 32 ml/l Triton X100, 48 h): 1.5
color (Salmonella typhi 118; 8 ml/l Triton X100, 24 h): gray
intensity of coloration (Salmonella typhi 118; 8 ml/l Triton X100, 24 h): 1
color (Salmonella typhi 118; 8 ml/l Triton X100, 48 h): gray
intensity of coloration (Salmonella typhi 118; 8 ml/l Triton X100, 48 h): 1
color (Salmonella typhi 118; 16 ml/l Triton X100, 24 h): gray
intensity of coloration (Salmonella typhi 118; 16 ml/l Triton X100, 24 h): 1
color (Salmonella typhi 118; 16 ml/l Triton X100, 48 h): gray
intensity of coloration (Salmonella typhi 118; 16 ml/l Triton X100, 48 h): 1
color (Salmonella typhi 118; 32 ml/l Triton X100, 24 h): gray
intensity of coloration (Salmonella typhi 118; 32 ml/l Triton X100, 24 h): 0.5
color (Salmonella typhi 118; 32 ml/l Triton X100, 48 h): gray
intensity of coloration (Salmonella typhi 118; 32 ml/l Triton X100, 48 h): 0.5
color (Salmonella arizonae 018; 8 ml/l Triton X100, 24 h): gray
intensity of coloration (Salmonella arizonae 018; 8 ml/l Triton X100, 24 h): 2
color (Salmonella arizonae 018; 8 ml/l Triton X100, 48 h): gray
intensity of coloration (Salmonella arizonae 018; 8 ml/l Triton X100, 48 h): 2.5
color (Salmonella arizonae 018; 16 ml/l Triton X100, 24 h): gray
intensity of coloration (Salmonella arizonae 018; 16 ml/l Triton X100, 24 h): 2
color (Salmonella arizonae 018; 16 ml/l Triton X100, 48 h): gray
intensity of coloration (Salmonella arizonae 018; 16 ml/l Triton X100, 48 h): 2.5
color (Salmonella arizonae 018; 32 ml/l Triton X100, 24 h): gray
intensity of coloration (Salmonella arizonae 018; 32 ml/l Triton X100, 24 h): 1
color (Salmonella arizonae 018; 32 ml/l Triton X100, 48 h): gray
intensity of coloration (Salmonella arizonae 018; 32 ml/l Triton X100, 48 h): 2
color (Escherichia coli 002; 8 ml/l Triton X100, 24 h): —
color (Escherichia coli 002; 8 ml/l Triton X100, 48 h): —
color (Escherichia coli 002; 16 ml/l Triton X100, 24 h): —
color (Escherichia coli 002; 16 ml/l Triton X100, 48 h): —
color (Escherichia coli 002; 32 ml/l Triton X100, 24 h): —
color (Escherichia coli 002; 32 ml/l Triton X100, 48 h): —
color (Hafnia alvei 025; 8 ml/l Triton X100, 24 h): —
color (Hafnia alvei 025; 8 ml/l Triton X100, 48 h): —
color (Hafnia alvei 025; 16 ml/l Triton X100, 24 h): —
color (Hafnia alvei 025; 16 ml/l Triton X100, 48 h): —
color (Hafnia alvei 025; 32 ml/l Triton X100, 24 h): —
color (Hafnia alvei 025; 32 ml/l Triton X100, 48 h): —
effect on the esterase activity compared with Tergitol 4 [2]: not as pronounced as that observed with Tergitol 4
